The test system of one series is C. neoformans. Put plainly: Antifungal activities, MIC/MFC. It is filed as cell-based. The method, then: (§1) A similar sequence of reactions was carried out using lysine dicholamide in place of cholic acid afforded VJ-1147 of Table 2. To assess the antifungal properties of the diwalled VJ-1138 (Table 2) and 2a of Table 3, their in vitro activities were examined against four clinically relevant microbes, i.e., C. albicans, C. glabrata, C. neoformans, and C. gatti (Table 4).
(§2) Minimum inhibitory concentrations (MIC) and minimum fungicidal concentrations (MFC) are the lowest concentrations that are required for completely inhibiting growth, and killing at least 99% of the fungi, respectively.
(§3) The above molecules were tested for antifungal activity. Minimum inhibitory concentrations (MIC) and minimum fungicidal concentrations (MFC) are the lowest concentrations that are required for completely inhibiting growth, and killing at least 99% of the fungi, respectively. As is apparent from Table 4 below, there is a general trend; i.e., increased antifungal activity is observed as the length of the hydrocarbon chain that separates the facial amphiphile from the Amphotericin B moiety is decreased.

For another series, the system named is C. gatti. As to the kind of experiment: Antifungal activities, MIC/MFC. Type of series: cell-based. The protocol: as §1, §2, §3
A further series concerns C. glabrata. As to the kind of experiment: Antifungal activities, MIC/MFC. Type of series: cell-based. The method, then:
as §1, §2, §3

For a further series, the system named is C. albicans. Put plainly: Antifungal activities, MIC/MFC. Type of series: cell-based. The protocol:
as §1, §2, §3

Series [1] concerns C. albicans, C. glabrata, C. neoformans, and C. gatti. Put plainly: In vitro antifungal activity, general statements on the four microbes. It is filed as cell-based. Conditions: at 11 μM. The protocol:
as §1, §2

The subject of a further series is sheep red blood cells. Put plainly: Hemolysis measurements, release of hemoglobin. Type of series: cell-based. The method, then: Sheep Red Blood Cells, 10%, in saline (Innovative Research, Novi, Mich.), were diluted in saline (pH 7.4) to a concentration of 4%, which corresponds to 4×10^7 cells/mL. All measurements were carried out in duplicate. Solutions of Amphotericin B (Sigma-Aldrich) were prepared by adding 10 μL of a DMSO solution containing a given concentration of the antibiotic (i.e., ranging from 0.2 mM to 50 mM) to 490 μL of PBS. After the resulting solution was vortex mixed for 30 seconds (s) it was incubated at 37° C. for 15 min. The resulting solution of antibiotic (500 μL) was then mixed with 500 μL of the 4% erythrocyte dispersion at 37° C. in a 1 mL plastic centrifuge vial to give a dispersion that was vortex mixed at slow rate for 5 s. After 1 h of incubation at 37° C., all samples were centrifuged (1500 g, Eppendorf centrifuge 5415C, 5000 rpm) at rt for 5 min. The supernatant (˜0.7 mL) from each plastic vial was carefully separated from sediment using a disposable glass pipette and quickly transferred to test tube. A volume of 50 μL of this supernatant was then transferred to a UV cell containing 500 μL of PBS that was maintained at 37° C. The UV spectrum was then scanned (450-650 nm) and the absorbance at 575 nm used to determine the extent of hemolysis. The extent of 0% and 100% of hemolysis was obtained from A575 values of experiments that were run in absence of AmphB (control, [A575,]o) and in presence, 100 μM AmphB ([A575]max), respectively.

The next series deals with HEK293T cells. As to the kind of experiment: Inhibition of cell growth, MTT cell viability. It is filed as cell-based, human. The conditions noted are these: varying concentrations; FIG. 11. The protocol:
Human embryonic kidney HEK293 cells were cultured in Dulbecco's modified Eagle's medium (DMEM supplemented with 10% FBS, 100 U/mL penicillin, and 0.1 mg/mL SI-10 streptomycin) in a humidified atmosphere of 5% CO2 at 37° C.
HEK293T cells were seeded in 96-well plates at a density of 6,000 cells/well and incubated overnight. Before treatment, compounds aliquots were solubilized in DMSO to obtain 10 mM stock solutions. Appropriate volumes of these stock solutions were added to DMEM media so the final concentration of DMSO is equal to 1%. After removal of cell media, 50 μL of treatment solutions were added to each well and incubated at 37° C. for 2 h. After treatment, the media was removed, and 100 μL of complete medium was added to each well before returning the plate to the incubator. Cell viability was determined after 72 h using the colorimetric MTT assay. Briefly, 10 μL of a 5 mg/mL MTT stock solution was added to the treated cells and incubated for 2 h at 37° C. The resulting formazan crystals were solubilized in 200 μL of DMSO, and the absorbance was measured at 580 nm using an Infinite 200 PRO microplate reader (Tecan). Cell viability was calculated against control cells treated with the vehicle in DMEM.

[2] abbreviates: at concentrations as high as 400 μM, 37° C. in PBS, pH 7.4.
[3] abbreviates: summary, no concentration stated.
Setting [4] is: second Table 4 (Example 4), C. neoformans.
[5] abbreviates: second Table 4 (Example 4), C. gatti.
Where [6] appears, read: second Table 4 (Example 4), C. glabrata.
Where [7] appears, read: second Table 4 (Example 4), C. albicans.

From patent publication US10322187B2, “Reduced toxicity molecular conjugates of anti-fungal agents” (Lehigh University, priority 2015, dated 2019) come the findings set out here.

Values after ≈ are worked out from the molar mass of the structure shown. Like-named read-outs stand apart in the source and are kept apart here.

`CC1OC(O[C@H]2/C=C/C=C/C=C/C=C/C=C/C=C/C=C/[C@H](C)[C@@H](O)[C@@H](C)[C@H](C)OC(=O)C[C@H](O)C[C@H](O)CC[C@@H](O)[C@H](O)C[C@H](O)C[C@]3(O)C[C@H](O)[C@@H](C(=O)NCCCCCCCC(=O)N(CCCCNC(=O)C(CCCCNC(=O)CC[C@@H](C)C4CCC5C6C(O)CC7CC(O)CCC7(C)C6CC(O)C54C)NC(=O)CC[C@@H](C)C4CCC5C6C(O)CC7CC(O)CCC7(C)C6CC(O)C54C)CCCNC(=O)C(CCCCNC(=O)CC[C@@H](C)C4CCC5C6C(O)CC7CC(O)CCC7(C)C6CC(O)C54C)NC(=O)CC[C@@H](C)C4CCC5C6C(O)CC7CC(O)CCC7(C)C6CC(O)C54C)[C@H](C2)O3)C(O)C(N)C1O` (stereo partly drawn) [VJ-1155]: the MIC in the series on C. neoformans (Cryptococcus neoformans), against C. gatti, against C. glabrata (Nakaseomyces glabratus) and against C. albicans (Candida albicans) was greater than 11 µM each time. In series [1], the antifungal activity result is recorded as “no antifungal activity”.
Regarding `CC1OC(O[C@H]2/C=C/C=C/C=C/C=C/C=C/C=C/C=C/[C@H](C)[C@@H](O)[C@@H](C)[C@H](C)OC(=O)C[C@H](O)C[C@H](O)CC[C@@H](O)[C@H](O)C[C@H](O)C[C@]3(O)C[C@H](O)[C@@H](C(=O)NCCCCCCCCNC(=O)CC[C@@H](C)C4CCC5C6C(O)CC7CC(O)CCC7(C)C6CC(O)C54C)[C@H](C2)O3)C(O)C(N)C1O` (stereo partly drawn) [YYM-69], the results for the hemolytic activity entry with sheep red blood cells (setting [2]) and with sheep red blood cells (setting [3]) were “negligible hemolytic activities” and “negligible hemolytic activity”, respectively. The MFC in the series with C. neoformans (setting [4]), in the series with C. gatti (setting [5]) and with C. albicans (setting [7]) was 2 µg/mL (≈ 1.39 µM) each time. The MIC was 1 µg/mL against C. neoformans (setting [4]), 1 µg/mL with C. gatti (setting [5]), >16/— μg/mL against C. glabrata (setting [6]) and 2 µg/mL in the series with C. albicans (setting [7]). In the series with HEK293T cells, the “toxicity towards HEK293 cells” value is “negligible cytotoxicity”.
As to `CC1OC(O[C@H]2/C=C/C=C/C=C/C=C/C=C/C=C/C=C/[C@H](C)[C@@H](O)[C@@H](C)[C@H](C)OC(=O)C[C@H](O)C[C@H](O)CC[C@@H](O)[C@H](O)C[C@H](O)C[C@]3(O)C[C@H](O)[C@@H](C(=O)NCCCCCCCCCCNC(=O)CC[C@@H](C)C4CCC5C6C(O)CC7CC(O)CCC7(C)C6CC(O)C54C)[C@H](C2)O3)C(O)C(N)C1O` (stereo partly drawn) [YYM-71], the hemolytic activity entry in the series with sheep red blood cells (setting [2]) was “negligible hemolytic activities”; with sheep red blood cells (setting [3]) it was “negligible hemolytic activity”. Further, the MFC in the series with C. neoformans (setting [4]) and in the series on C. gatti (setting [5]) was greater than 16 µg/mL throughout. Further, the MIC was 2 µg/mL against C. neoformans (setting [4]), 1 µg/mL against C. gatti (setting [5]), >16/— μg/mL in the series with C. glabrata (setting [6]) and >16/— μg/mL with C. albicans (setting [7]). Also, the “toxicity towards HEK293 cells” value in the series with HEK293T cells is recorded as “negligible cytotoxicity”.
